Data published in patent US20040171543A1, “Matrix metalloproteinase inhibitors and methods for identification of lead compounds” (priority 2002, published 2004).
Counter-ions that a name gives are not always drawn. Like-named read-outs stand apart in the source and are kept apart here. Blank lines part the entries; values can stand above or below the compound they belong to.

Columns and labels:
MMP-2 [1] = molecular target: T1, MMP-2 (Homo sapiens, UniProt P08253); details: Curtin et al.; cited from earlier work
T1 sequence (P08253 110-660): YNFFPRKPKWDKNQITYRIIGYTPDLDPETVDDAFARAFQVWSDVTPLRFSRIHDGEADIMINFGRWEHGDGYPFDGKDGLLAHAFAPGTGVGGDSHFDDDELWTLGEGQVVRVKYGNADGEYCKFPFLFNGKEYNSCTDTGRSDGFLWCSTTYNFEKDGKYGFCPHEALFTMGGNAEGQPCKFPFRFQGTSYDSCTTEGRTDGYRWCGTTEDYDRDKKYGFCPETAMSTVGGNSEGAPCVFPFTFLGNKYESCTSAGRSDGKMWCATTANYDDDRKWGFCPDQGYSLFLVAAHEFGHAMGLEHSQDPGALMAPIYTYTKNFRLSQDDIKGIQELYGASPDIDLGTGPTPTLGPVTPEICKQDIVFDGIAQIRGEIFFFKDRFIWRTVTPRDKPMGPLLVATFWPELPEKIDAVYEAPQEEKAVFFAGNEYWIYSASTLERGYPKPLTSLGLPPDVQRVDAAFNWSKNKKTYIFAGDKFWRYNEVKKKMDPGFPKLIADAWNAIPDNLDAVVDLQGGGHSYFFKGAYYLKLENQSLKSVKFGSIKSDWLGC

MMP-12 [2] = molecular target: T2, MMP-12 (Homo sapiens, UniProt P39900); assay: TPL (thiopeptolide) assay, MMP-12 (without and with AH); assay type: biochemical
Description: (§1) The assays that can be used to evaluate the biological activity of various compounds for inhibiting MMPs are well-known and routinely used by those skilled in the art. They measure the amount by which a test compound reduces the hydrolysis of a thiopeptolide substrate caused by a matrix metalloproteinase enzyme. Such assays are described in detail by Ye et al., in Biochemistry, 1992;31(45): 11231-11235, which is incorporated herein by reference.
(§2) Thiopeptolide substrates show virtually no decomposition or hydrolysis in the absence of a matrix metalloproteinase enzyme. A typical thiopeptolide substrate commonly utilized for assays is Ac-Pro-Leu-Gly-thioester-Leu-Leu-Gly-OEt. A 100 μL assay mixture will contain 50 mM of 2-morpholinoethane sulfonic acid monohydrate (MES, pH 6.0) 10 mM CaCl2, 100 μM thiopeptolide substrate, and 1 mM 5,5′-dithio-bis-(2-nitro-benzoic acid) (DTNB). The thiopeptolide substrate concentration is varied from 10 to 800 μM to obtain Km and Kcat values. The change in absorbance at […] is monitored on a Thermo Max microplate reader (Molecular Devices, Menlo Park, Calif.) at room temperature (22° C.). The calculation of the amount of hydrolysis of the thiopeptolide substrate is based on E412=13600 m^−1 cm^−1 for the DTNB-derived product 3-carboxy-4-nitrothiophenoxide. Assays are carried out with and without matrix metalloproteinase inhibitor compounds, and the amount of hydrolysis is compared for a determination of inhibitory activity of the test compounds.
Although ligand size is not critical, a bulky ligand will block more binding sites of the MMP than a smaller ligand, and may thus prevent potential inhibitors that bind close to, but not at, the functional metal cation from being identified. Suitable ligands are therefore low molecular weight molecules, e.g. acetohydroxamic acid (CH3CONHOH) whose use is preferred.

MMP-13 = MMP-13 (Homo sapiens, UniProt P45452); assay: TPL (thiopeptolide) assay, MMP-13 (without and with AH); assay type: biochemical
Description: Thiopeptolide substrates show virtually no decomposition or hydrolysis in the absence of a matrix metalloproteinase enzyme. A typical thiopeptolide substrate commonly utilized for assays is Ac-Pro-Leu-Gly-thioester-Leu-Leu-Gly-OEt. A 100 μL assay mixture will contain 50 mM of 2-morpholinoethane sulfonic acid monohydrate (MES, pH 6.0) 10 mM CaCl2, 100 μM thiopeptolide substrate, and 1 mM 5,5′-dithio-bis-(2-nitro-benzoic acid) (DTNB). […] The change in absorbance at 405 mm is monitored on a Thermo Max microplate reader (Molecular Devices, Menlo Park, Calif.) at room temperature (22° C.). […] Assays are carried out with and without matrix metalloproteinase inhibitor compounds, and the amount of hydrolysis is compared for a determination of inhibitory activity of the test compounds.

[3] = molecular target: T3, MMP-13 catalytic domain (MMP-13CD) (Homo sapiens, UniProt P45452); assay: Fluorigenic peptide-1 substrate based assay, MMP-13CD, with/without AcNHOH; assay type: biochemical; details: for IC50: FP1 substrate; for IC50 Ratio (±): IC50 with AcNHOH divided by IC50 without
T3 construct: The catalytic domain of the MMP-13 enzyme, namely matrix metalloproteinase-13 catalytic domain (“MMP-13CD”)
Description: The catalytic domain of the MMP-13 enzyme, namely matrix metalloproteinase-13 catalytic domain (“MMP-13CD”), rather than the corresponding full-length enzyme, MMP-13 was used in such assay.
50 mM HEPES buffer (pH 7.0)
2% DMSO (with or without inhibitor test compound)
1. Dispensed 2 μL inhibitor test sample (in 100% DMSO) into well.
2. Added 88 μL assay mixture and mixed well, avoiding bubbles.
3. Initiated reactions with 10 μL of 5 nM MMP-13CD; mixed well, avoiding bubbles.
4. Immediately measured the kinetics of the reactions at room temperature.
Alternatively, an endpoint read can also be used to determine reaction velocity provided the initial fluorescence of the solution, as recorded before addition of enzyme, is subtracted from the final fluorescence of the reaction mixture.

MMP-2 and MMP-9 = details: Wada et al.; cited from earlier work
tumor growth = details: murine syngenetic tumor growth model; cited from earlier work
MMP-1 = molecular target: T4, MMP-1 (Homo sapiens, UniProt P03956); assay: TPL (thiopeptolide) assay, MMP-1; assay type: biochemical; details: read-out: IC50 MMP-1
T4 sequence (P03956 100-469): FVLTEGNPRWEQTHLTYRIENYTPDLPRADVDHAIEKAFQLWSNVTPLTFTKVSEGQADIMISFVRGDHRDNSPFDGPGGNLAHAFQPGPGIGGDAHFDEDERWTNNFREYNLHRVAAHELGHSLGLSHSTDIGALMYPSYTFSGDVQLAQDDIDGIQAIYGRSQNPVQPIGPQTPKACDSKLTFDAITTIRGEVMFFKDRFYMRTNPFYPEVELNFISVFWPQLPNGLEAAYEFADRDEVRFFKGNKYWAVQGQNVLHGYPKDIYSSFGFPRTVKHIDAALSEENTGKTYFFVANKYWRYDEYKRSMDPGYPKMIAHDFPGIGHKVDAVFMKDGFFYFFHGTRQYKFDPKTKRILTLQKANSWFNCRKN
Description: as §1, §2

MMP-2 [4] = molecular target: T1, MMP-2; assay: TPL (thiopeptolide) assay, MMP-2; assay type: biochemical; details: read-out: IC50 MMP-2
Description: as §1, §2

MMP-3 = MMP-3 (Homo sapiens, UniProt P08254); assay: TPL (thiopeptolide) assay, MMP-3; assay type: biochemical; details: read-out: IC50 MMP-3
Description: as §1, §2

MMP-8 = MMP-8 (Homo sapiens, UniProt P22894); assay: TPL (thiopeptolide) assay, MMP-8; assay type: biochemical
Description: as §1
as §2, with “Assays are carried out with and without matrix metalloproteinase inhibitor compounds, and the amount of hydrolysis is compared for a determination of inhibitory activity of the test compounds.” left out

MMP-9 = MMP-9 (Homo sapiens, UniProt P14780); assay: TPL (thiopeptolide) assay, MMP-9; assay type: biochemical; details: read-out: IC50 MMP-9
Description: as §1, §2

MMP-12 [5] = molecular target: T2, MMP-12; details: literature; cited from earlier work
[6] = TPL assay, without AH, read-out: IC50 MMP-12
[7] = in presence of acetohydroxamic acid (+AH), read-out: IC50 MMP12 (+AH)
[8] = TPL assay, without AH, read-out: IC50 MMP-13

T2 sequence (P39900 106-470): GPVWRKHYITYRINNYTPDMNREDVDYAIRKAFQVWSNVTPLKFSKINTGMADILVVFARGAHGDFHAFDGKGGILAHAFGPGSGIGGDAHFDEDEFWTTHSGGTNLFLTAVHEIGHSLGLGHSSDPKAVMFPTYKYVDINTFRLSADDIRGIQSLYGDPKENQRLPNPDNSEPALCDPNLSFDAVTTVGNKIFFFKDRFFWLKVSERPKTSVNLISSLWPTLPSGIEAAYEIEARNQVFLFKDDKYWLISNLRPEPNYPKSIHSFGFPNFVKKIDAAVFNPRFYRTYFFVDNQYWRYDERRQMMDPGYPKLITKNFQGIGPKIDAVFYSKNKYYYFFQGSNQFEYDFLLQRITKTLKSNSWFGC
MMP-3, sequence (P08254 100-477): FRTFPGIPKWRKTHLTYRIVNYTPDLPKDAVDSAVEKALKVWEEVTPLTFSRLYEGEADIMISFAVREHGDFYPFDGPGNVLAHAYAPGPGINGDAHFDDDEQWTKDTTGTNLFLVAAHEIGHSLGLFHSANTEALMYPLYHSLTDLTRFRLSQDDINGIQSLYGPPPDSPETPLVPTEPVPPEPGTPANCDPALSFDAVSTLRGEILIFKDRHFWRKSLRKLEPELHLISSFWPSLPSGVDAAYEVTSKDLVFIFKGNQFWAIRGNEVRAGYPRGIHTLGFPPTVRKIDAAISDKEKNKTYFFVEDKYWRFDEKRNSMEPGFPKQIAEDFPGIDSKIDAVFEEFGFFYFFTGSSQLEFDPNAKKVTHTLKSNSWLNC
MMP-8, sequence (P22894 101-467): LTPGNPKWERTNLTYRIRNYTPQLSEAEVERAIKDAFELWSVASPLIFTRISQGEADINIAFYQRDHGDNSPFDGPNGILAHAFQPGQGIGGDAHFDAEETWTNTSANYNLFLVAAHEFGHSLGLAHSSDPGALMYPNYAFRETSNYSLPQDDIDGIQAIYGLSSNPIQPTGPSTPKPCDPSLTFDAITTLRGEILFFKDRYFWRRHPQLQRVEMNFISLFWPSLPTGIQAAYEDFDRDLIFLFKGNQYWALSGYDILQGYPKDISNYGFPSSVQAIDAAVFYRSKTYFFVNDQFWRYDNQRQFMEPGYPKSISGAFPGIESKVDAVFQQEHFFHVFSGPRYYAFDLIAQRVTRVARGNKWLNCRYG
MMP-9, sequence (P14780 94-707): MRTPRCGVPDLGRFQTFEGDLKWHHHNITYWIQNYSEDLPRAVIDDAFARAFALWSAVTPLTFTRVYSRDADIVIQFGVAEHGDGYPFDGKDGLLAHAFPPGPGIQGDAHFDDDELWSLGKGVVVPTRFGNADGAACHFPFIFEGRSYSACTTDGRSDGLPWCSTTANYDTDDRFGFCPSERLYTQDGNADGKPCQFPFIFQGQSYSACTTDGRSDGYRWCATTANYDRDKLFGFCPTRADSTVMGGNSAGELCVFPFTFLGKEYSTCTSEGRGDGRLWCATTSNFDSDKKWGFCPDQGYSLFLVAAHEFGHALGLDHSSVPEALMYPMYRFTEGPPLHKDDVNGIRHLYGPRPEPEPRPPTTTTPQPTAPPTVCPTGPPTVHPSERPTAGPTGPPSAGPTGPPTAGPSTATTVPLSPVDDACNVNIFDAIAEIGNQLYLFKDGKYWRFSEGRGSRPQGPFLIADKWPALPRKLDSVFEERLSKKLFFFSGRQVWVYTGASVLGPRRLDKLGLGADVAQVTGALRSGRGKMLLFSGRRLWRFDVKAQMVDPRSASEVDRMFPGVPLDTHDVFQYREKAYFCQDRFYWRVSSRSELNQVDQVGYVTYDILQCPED

Compound: CC1(C)NC(=O)N(C[C@@H](COc2ccc(-c3ccc(OC(F)(F)F)cc3)cc2)N(O)C=O)C1=O
Selectivity for MMP-2 versus MMP-1 (MMP-2 [1]): highly selective

Compound: O=C(NC[C@H]1CC[C@H](C(=O)O)CC1)c1cc(-c2ccc(-c3ccncc3)cc2)ns1 [Example 8, Trans 3-[4-(4-pyridyl)phenyl]-5-isothiazole carboxamido methyl-cyclohexane carboxylic acid, Potassium Salt]
IC50 (MMP-12 [2]; [6]): 0.57 µM
IC50 (MMP-12 [2]; [7]): 0.015 µM
IC50 (MMP-13; [8]): 1.9 µM

Compound: O=C(NC(=S)NCc1cc(-c2ccccc2)no1)c1ccccc1 [Entry 10]
IC50 ([3]; 0 mM AcNHOH, read-out: Without AcNHOH IC50): 2.3 µM
IC50 ([3]; 15 mM AcNHOH (1 Kd), read-out: With AcNHOH IC50): 0.2 µM
IC50 Ratio (±) [3]: 0.08

Compound: CC1(C)OCC([C@@H](CS(=O)(=O)c2ccc(Oc3ccc(OC(F)(F)F)cc3)cc2)N(O)C=O)O1 (stereo partly drawn)
Selectivity for inhibition of MMP-2 and MMP-9 over MMP-1 (MMP-2 and MMP-9): selective
Antitumor activity (tumor growth): demonstrated antitumor activity

Compound: Cc1c(-c2ccc(-n3ccnc3)cc2)[nH][nH]c1=O [Entry 5]
IC50 Ratio (±) [3]: 1.16

Compound: COc1ccc(S(=O)(=O)N(Cc2cccnc2)[C@@H](C(=O)NO)C(C)C)cc1 [CGS27023A]
IC50 (MMP-12 [5]): 0.002 µM

Compound: CN1c2ccc(C3CN(Cc4ccccc4)C(=O)CO3)cc2CS1(=O)=O (stereo not drawn) [Example 7, 4-Benzyl-6-(1-methyl-2,2-dioxo-2,3-dihydro-1H-2λ^6-benzo[c]isothiazol-5-yl)morpholin-3-one]
IC50 (MMP-12 [2]; [6]): 17 µM
IC50 (MMP-12 [2]; [7]): 0.27 µM
IC50 (MMP-13; [8]): 3.6 µM

Further lines, results first:

IC50 (MMP-1): > 101 µM
IC50 (MMP-2 [4]): > 0.39 µM
IC50 (MMP-3): > 1.7 µM
IC50 (MMP-8): > 0.98 µM
IC50 (MMP-9): > 1.4 µM
IC50 (MMP-12 [2]; [6]): 0.014 µM
IC50 (MMP-12 [2]; [7]): 0.004 µM
IC50 (MMP-13): 0.27 µM
Compound: O=C(O)C[C@@H](NC(=O)c1cc(-c2ccc(-c3ccncc3)cc2)cs1)c1ccccc1 [Example 6, (2?)-3-({[4-1(pyridin-4-yl)phényl]-thièn-2-yl]carboxamido)(phényl)propanoic acid hydrochloride]

IC50 Ratio (±) [3]: 0.82
Compound: CCOC(=O)/C=C/c1ccc(-n2ccnc2)cc1 [Entry 6]

IC50 Ratio (±) [3]: 0.41
Compound: COc1ccc(C(=O)NCc2cccnc2)cc1C(=O)NCc1cccnc1 [Entry 7]
